In patent US12030865B2, “Pesticidal mixtures comprising indazoles” (FMC Corporation, priority 2018, dated 2024):

What was measured:
Type in all cases: in vivo
[1] = test system: Western Flower Thrips (Frankliniellla occidentalis (Pergande)); assay: Test D: control of Western Flower Thrips on Soleil bean plant, spray; conditions: adult thrips, held 6 days
Description: (§1) Test compounds were formulated using a solution containing 10% acetone, 90% water and 300 ppm X-77® Spreader Lo-Foam Formula non-ionic surfactant containing alkylarylpolyoxyethylene, free fatty acids, glycols and isopropanol (Loveland Industries, Inc. Greeley, Colorado, USA). The formulated compounds were applied in 1 mL of liquid through a SUJ2 atomizer nozzle with 1/8 JJ custom body (Spraying Systems Co. Wheaton, Illinois, USA) positioned 1.27 cm (0.5 inches) above the top of each test unit. Test compounds were sprayed at the rates indicated, and each test was replicated three times.
For evaluating control of the Western Flower Thrips (Frankliniellla occidentalis (Pergande)) through contact and/or systemic means, the test unit consisted of a small open container with a 5-7-day-old Soleil bean plant inside.
Test compounds were formulated and sprayed at 250 and/or 50 ppm. After spraying, the test units were allowed to dry for 1 hour, and then 22-27 adult thrips were added to each unit. A black, screened cap was placed on top, and the test units were held for 6 days at 25° C. and 45-55% relative humidity.

[2] = test system: sweetpotato whitefly (Bemisia tabaci (Gennadius)); assay: Test C: control of sweetpotato whitefly on egg-infested cotton plant, spray; conditions: 312 h, cotton plant with eggs, visually assessed after 13 days; for mortality at 250 ppm: sprayed at 250 ppm
Description: as §1
For evaluating control of the sweetpotato whitefly (Bemisia tabaci (Gennadius)) through contact and/or systemic means, the test unit consisted of a small open container with a 12-14-day-old cotton plant inside. Prior to the spray application, both cotyledons were removed from the plant, leaving one true leaf for the assay. Adult whiteflies were allowed to lay eggs on the plant and then were removed from the test unit. Cotton plants infested with at least 15 eggs were submitted to the test for spraying.
Test compounds were formulated and sprayed at 250 and/or 50 ppm. After spraying, the test units were allowed to dry for 1 hour. The cylinders were then removed, and the units were taken to a growth chamber and held for 13 days at 28° C. and 50-70% relative humidity. Each test unit was then visually assessed for insect mortality.

[3] = test system: green peach aphid (Myzus persicae (Sulzer)); assay: Test A: control of green peach aphid on pre-infested radish plant, spray; conditions: 144 h, visually assessed after 6 days; for mortality at 50 ppm: sprayed at 50 ppm; for mortality at 250 ppm: sprayed at 250 ppm
Description: as §1
For evaluating control of green peach aphid (Myzus persicae (Sulzer)) through contact and/or systemic means, the test unit consisted of a small open container with a 12-15-day-old radish plant inside. This was pre-infested by placing on a leaf of the test plant 30-40 aphids on a piece of leaf excised from a culture plant (cut-leaf method). The aphids moved onto the test plant as the leaf piece desiccated. After pre-infestation, the soil of the test unit was covered with a layer of sand.
Test compounds were formulated and sprayed at 250 and/or 50 ppm. After spraying of the formulated test compound, each test unit was allowed to dry for 1 hour and then a black, screened cap was placed on top. The test units were held for 6 days in a growth chamber at 19-21° C. and 50-70% relative humidity. Each test unit was then visually assessed for insect mortality.

[4] = test system: cotton melon aphid (Aphis gossypii (Glover)); assay: Test B: control of cotton melon aphid on pre-infested cotton plant, spray; conditions: 144 h, sprayed at 50 ppm, visually assessed after 6 days
Description: as §1
For evaluating control of cotton melon aphid (Aphis gossypii (Glover)) through contact and/or systemic means, the test unit consisted of a small open container with a 6-7-day-old cotton plant inside. This was pre-infested with 30-40 insects on a piece of leaf according to the cut-leaf method, and the soil of the test unit was covered with a layer of sand.
Test compounds were formulated and sprayed at 250 and/or 50 ppm. After spraying, the test units were maintained in a growth chamber for 6 days at 19° C. and 70% relative humidity. Each test unit was then visually assessed for insect mortality.

| Compound | control efficacy (30% or less plant damage and/or 100% mortality) ([1]; sprayed at 50 ppm) | control efficacy (30% or less plant damage and/or 100% mortality) ([1]; sprayed at 250 ppm) | mortality at 50 ppm ([2]; sprayed at 50 ppm) | mortality at 250 ppm [2] | mortality at 50 ppm [3] | mortality at 250 ppm [3] | mortality at 50 ppm [4] |
| --- | --- | --- | --- | --- | --- | --- | --- |
| O=C(NC1(C(F)F)CC1)c1cccc2nn(-c3cccnc3)cc12 [Compound 1, N-[1-(difluoromethyl)cyclopropyl]-2-(3-pyridinyl)-2H-indazole-4-carboxamide] | very good to excellent levels of control efficacy | very good to excellent levels of control efficacy | ≥ 50% | ≥ 50% | ≥ 80% | ≥ 80% | ≥ 80% |
| CSCC(C)(C)NC(=O)c1ccc(F)c2nn(-c3cccnc3)cc12 [Compound 2a, N-[1,1-dimethyl-2-(methylthio)ethyl]-7-fluoro-2-(3-pyridinyl)-2H-indazole-4-carboxamide] | very good to excellent levels of control efficacy | very good to excellent levels of control efficacy | – | – | ≥ 80% | ≥ 80% | ≥ 80% |
| C[S+]([O-])CC(C)(C)NC(=O)c1ccc(F)c2nn(-c3cccnc3)cc12 (stereo not shown) [Compound 2b, N-[1,1-dimethyl-2-(methylsulfinyl)ethyl]-7-fluoro-2-(3-pyridinyl)-2H indazole-4-carboxamide] | very good to excellent levels of control efficacy | very good to excellent levels of control efficacy | – | ≥ 50% | ≥ 80% | – | ≥ 80% |
| CC(C)(CS(C)(=O)=O)NC(=O)c1ccc(F)c2nn(-c3cccnc3)cc12 [Compound 2c, N-[1,1-dimethyl-2-(methylsulfonyl)ethyl]-7-fluoro-2-(3-pyridinyl)-2H indazole-4-carboxamide] | – | – | – | – | ≥ 80% | – | ≥ 80% |
